Data taken from patent US12678433B2, “Compounds for treatment of hemolysis-and inflammasome-associated diseases” (New York Blood Center, Inc., priority 2020, dated 2026).
Read-outs that look alike come from different tables or passages of the source.

Legend:
[1] = tested on: purified naïve B cells from healthy donors
Method: Hemin and RBC lysate preparation. Hemin, dissolved in dimethyl sulfoxide (DMSO), stock concentration 10 mM, was diluted to 100 μM with serum-free RPMI 1640 culture medium just prior to addition to B cell cultures. For short-term experiments lasting less than 24 hr, a final concentration of 10 μM hemin was used whereas for longer-term culture up to 7 days, 2.5-5 μM final heme concentration was used. RBC lysates were freshly prepared (containing ~80 g/L hemoglobin) for same day use. Briefly, 4 ml whole blood from healthy donors was passed through Acrodisc WBC syringe filter (Pall Corporation) to remove white blood cells followed by two washes with Dulbecco's Phosphate Buffered Saline (D-PBS) (200×g, 10 min at room temperature with no brake) for removal of platelets. The RBC pellet was lysed with 3 times volume of distilled water for 10 min at 37° C. Cellular debris was pelleted by centrifugation at 4000×g for 10 min at 4° C. The RBC lysate was transferred to a new tube and 1/9 volume of 10×D-PBS added.
Cell isolation and culture. Peripheral blood mononuclear cells (PBMCs) were prepared by Ficoll (GE Healthcare) density gradient centrifugation from healthy donor leukopak products as well as from sickle peripheral blood apheresis waste bags. Human naïve and memory B cells were isolated from PBMCs using a human memory B Cell Isolation Kit (Miltenyi Biotec) by collecting CD27− B cells (naïve B cells) and CD27+ B cell (memory B cells) separately. […] RPMI 1640 culture medium was used for all cell culture experiments (supplemented with 10% FBS, 100-unit penicillin-streptomycin, […], 1 mM sodium pyruvate, all from Thermo Fisher Scientific). Purified B cells were stained with CFSE (Cat #: C34554, Thermo Fisher Scientific) and cultured in U-bottom 96 well plates (2.5×10^5/well/200 μl culture medium) in the presence of goat anti-human IgA+IgG+IgM (H+L) F(ab′)2 fragment (2.5 μg/ml, Jackson ImmunoResearch), CD154 (10 ng/ml, R&D Systems) and CpG (ODN 7909, 1 nM, Cat #: tlrl-2006-1) without IL-2 for analysis of only CD38+ plasmablast differentiation or with IL-2 (5 ng/ml, Cat #:1081-IL-020, R&D Systems) in experiments to detect CD27^hiBlimp-1+ plasma cells. In addition, heme and various inhibitors were added to the cultures at the start point and incubated for 7 days.
(§1) Cultured cells: stimulated B cells were transferred into U bottom 96 well plate and washed with 200 μl MACS buffer (D-PBS containing 0.5% BSA and 2 mM EDTA) at 300×g for 5 min at 4° C. After one wash, cells were stained for surface expression of CD19, CD38, CD27 using 25 μl staining buffer (anti-CD19, CD38, CD27 antibodies, diluted 200 fold with MACS buffer) for 30 min at 4° C. After one wash with 200 μl MACS buffer, cells were resuspended in 100 μl D-PBS and 50 μl Fixable Viability Dye eFluor™ 780 (1000 fold diluted with D-PBS, Thermo Fisher Scientific) was added for dead cell detection for 5 min at room temperature. Cells were washed one time with MACS buffer and 100 μl D-DPS was added just before flow cytometric analysis (LSRFortessa flow cytometer, BD Bioscience). For intracellular staining of IgG, Blimp-1 and HO-1, samples were first washed with 200 μl MACS buffer before addition of 150 μl Fixation/Permeabilization buffer (Thermo Fisher Scientific) for 45 min at 4° C. After fixation, samples were washed twice with 1× Permeabilization buffer (Thermo Fisher Scientific) and stained with 25 μl intracellular staining buffer (anti-human IgG, DOCK8, Blimp-1, HO-1 antibodies, diluted 200 fold with 1× Permeabilization buffer) for 45 min at 4° C., after which the cells were washed twice with Permeabilization buffer and 100p D-DPS was added prior to flow cytometric analysis.

DOCK8 = DOCK8 expression and DOCK8hi/DOCK8lo subsets in stimulated B cells; assay type: cell-based, human; conditions: heme 5 μM
From the text: We next tested the effect of cell-free heme on DOCK8 signaling during B cell differentiation. […] Heme treatment led to inhibition of CD27^hiBlimp-1^+ plasma cell differentiation (FIG. 2D, p=0.0195).

[2] = tested on: CD27+ memory B cells from healthy donors; experiment: 7-day stimulated memory B cell culture; assay type: cell-based, human; conditions: different doses of hemin, 7 days
From the text: FIG. 6A-G. Effect of heme on memory plasmablast differentiation and IgG class-switch B cell development. FIG. 6A: Gating strategy for single live B cell analysis after culture. FIG. 6B: Fold change in CD38+ plasmablast cells in 7-day stimulated HD purified CD27+ memory B cells (as described for naïve B cell cultures in FIG. 1) in the presence of different doses of hemin relative to no hemin treatment. FIG. 6C: Histogram showing IgG expression levels in CD38+ plasmablasts from naïve B cell stimulated cultures. FIG. 6D: Fold change of IgG+ cell frequency in CD38+ plasmablasts in the presence of 2.5 μM or 5 μM hemin relative to no hemin treatment in stimulated naïve B cells from HD, Allo(−) and Allo(+) SCD patients. FIG. 6E: Naïve B cells from HD were cultured with 20% SCD patients' sera from Allo(−) or Allo(+) patients and stimulated with B cell activation cocktail for 7 days as described. Frequency of CD38+ plasmablasts is shown. FIG. 6F: Fold change of proliferated B cell frequency (within total, live B cells) in the presence of 2.5 μM or 5 μM hemin relative to no hemin treatment in stimulated naïve B cells from HD, Allo(−) and Allo(+) SCD patients. FIG. 6G: The change and fold change of live cell frequency in total 7-day stimulated HD B cell in the presence of different concentrations of hemin.
Cell isolation and culture.

[3] = tested on: naïve B cells from Allo(−) and Allo(+) SCD patients; experiment: 7-day stimulated naïve B cell culture from SCD patients; assay type: cell-based, human; conditions: for inhibition of plasmablast B cell differentiation: heme 5 μM
Method: Human samples. All studies were approved by the institutional Review Boards of the New York Blood Center (NYBC) and Montefiore Health Center. […] The blood samples from SCD patients were processed within 18 hours after collection. For circulating DOCK8 expression studies in healthy controls, peripheral blood samples from de-identified, race-matched healthy donors were used. Leukocyte enriched products from de-identified healthy donors were used for purification of B cells for in vitro culture studies.
Cell isolation and culture. Peripheral blood mononuclear cells (PBMCs) were prepared by Ficoll (GE Healthcare) density gradient centrifugation from healthy donor leukopak products as well as from sickle peripheral blood apheresis waste bags. Human naïve and memory B cells were isolated from PBMCs using a human memory B Cell Isolation Kit (Miltenyi Biotec) by collecting CD27− B cells (naïve B cells) and CD27+ B cell (memory B cells) separately. […] In addition, heme and various inhibitors were added to the cultures at the start point and incubated for 7 days.
as §1

[4] = HD naïve B cells, 7 days, highest heme concentration tested (5 μM)

C=CC1=C(C)c2cc3[n-]c(cc4[n-]c(cc5nc(cc1n2)C(C)=C5C=C)c(C)c4CCC(=O)O)c(CCC(=O)O)c3C.[Fe+2] [heme, iron(III) complex of protoporphyrin IX]
effect on B cell proliferation ([1]; 2.5 μM heme): minor inhibition | effect on differentiation of naïve B cells into plasmablasts ([1]; 2.5 μM heme): robust inhibitory effect | B cell class switch recombination (percent IgG+ B cells) ([1]; 2.5 or 5 μM hemin): not affected | inhibition of B cell proliferation [1, 4]: 6.8%±1.3% | inhibition of plasmablast cell differentiation [1, 4]: 52.7%±8.0% | effect on B cell proliferation ([1]; heme 2.5 μM, SnPPIX 2.5 μM, alone or together): little to no effect | CD27hiBlimp-1+ plasma cell differentiation ([1]; heme 2.5 or 5 μM, 7 days): inhibition | percentage of viable B cells ([1]; highest dose of heme used): high | reduction in DOCK8hi subset (DOCK8): 61.6%±6.5% | reduction in DOCK8lo subset (DOCK8): 34.1%±5.9% | effect on memory B cell proliferation or differentiation [2]: no effect | effect on B cell proliferation, Allo(−) versus Allo(+) patients ([3]; 2.5 or 5 μM hemin): did not differ | DOCK8hi B cells and CD27hiBlimp-1+ plasma cell differentiation ([3]; Allo(+) SCD patients): not | inhibition of plasmablast B cell differentiation ([3]; Allo(+) SCD patients): 16%±9.7% | DOCK8hi B cells and CD27hiBlimp-1+ plasma cell differentiation ([3]; Allo(−) SCD patients): inhibited | inhibition of plasmablast B cell differentiation ([3]; Allo(−) SCD patients): 58.6%±7.3%
